Entries after “also recorded” stand apart in the source; their conditions may differ.
Assays:
primary cortical neurons = test: α-tubulin and MAP2 expression in primary cortical neurons; format: cell-based, rat; conditions: 10 and 30 μM, 14 days
Protocol: Primary culture of cortical neurons was prepared from embryonic day 18±0.5 Sprague-Dawley rats. One day after seeding, primary cortical neurons were treated with 10 and 30 μM BHDPC for 14 days. Fourteen days following BHDPC treatment, primary cortical neurons cultured on glass coverslips (Thermo Scientific) were fixed with 4% paraformaldehyde for 15 min. Following fixation, neurons were permeabilized with 0.1% Triton X-100 in Tris-buffered saline for 7 min, and blocked with 4% bovine serum albumin and 2% goat serum for 1 h. α-tubulin and MAP2 were incubated at 1:400 dilution for 1 h at room temperature and overnight at 4° C. respectively. Following primary antibody incubation, neurons were incubated with Alexa Flour 488 or 568 secondary antibodies (anti-rabbit or anti-mouse) at 1:400 dilution for 1 h at room temperature. The coverslips were then mounted on microscopic slides (Thermo Scientific) using ProLong® Gold Antifade Mountant (Molecular Probes). Neurons were imaged using the LSM 780 laser scanning microscope (Carl Zeiss). Fluorescence intensity was measured using Image J.

zebrafish = test: MPTP-induced dopaminergic neuron loss in zebrafish (TH whole-mount immunostaining); format: in vivo, Danio rerio; conditions: for TH+ density, percentage of the control group: 360 μM MPTP 48 h, 1 dpf zebrafish
Protocol: Zebrafish at 1 dpf were exposed to BHDPC (3, 10, 30 μM) with or without MPTP for 48 h. Then fish were fixed for whole mount immunostaining. The morphology change of dopaminergic neurons in zebrafish brain was indicated by immunostaining with antibody against tyrosine hydroxylase (TH). Statistical analysis of TH density was accessed in each 10 fish/group. […] Zebrafish at 1 dpf were exposed to different concentrations of BHDPC with or without MPTP for 48 h. Then fish were fixed for whole mount immunostaining.
The AB strain of wild type zebrafish (Danio rerio) was maintained as described in the Zebrafish Handbook. Zebrafish were staged by days post fertilization […]. For breeding, groups of male and female (3:2) adult zebrafish were placed in 10-L plastic aquarium equipped with spawning nets in the evening. In the following morning, eggs were collected from the breeding group tanks. Normally developed fertilized eggs were selected under a stereomicroscope for further studies. The MPTP manipulation was performed with appropriate safety precautions and all MPTP-containing water was bleached.
Whole-mount immunostaining in zebrafish was performed as previously described. 3 dpf Zebrafish larvae were fixed with 4% paraformaldehyde in PBS for 30 min, […] (TH) staining was performed as previously described. Briefly, zebrafish were fixed in 4% paraformaldehyde in PBS for 5 h. Fixed samples were blocked (2% lamb serum and 0.1% BSA in PBST) for 1 h at room temperature. A mouse monoclonal anti-tyrosine hydroxylase (TH) antibody (Millipore, Billerica, MD, USA) was used as the primary antibody and incubated with samples overnight at 4° C. On the next day, samples were washed six times with PBST (each wash lasted 30 min), followed by incubation with Alexa Fluor® 488 goat anti-mouse antibodies. After immunostaining, zebrafish were mounted with 3.5% methylcellulose and photographed. Semi-quantification of the area of TH^+ cells was assessed by an investigator, unaware of the drug treatment, using Image-J software. Results are expressed as percentage of area of TH^+ cells in untreated normal control groups.
In this example, the in vivo animal model was used to determine the neuroprotective effect of BHDPC. Anti-tyrosine hydroxylase (TH) whole mount immunostaining was used to determine dopaminergic neuronal populations in zebrafish larvae (FIG. 15A). TH activity is the key enzyme responsible for dopamine biosynthesis in the CNS. […] The dopamine reuptake inhibitor nomifensine (Nom), which protected against MPTP-induced neurotoxicity in vivo was used as a positive control. The treatment of larvae with 30 μM of nomifensine, a positive control drug attenuated MPTP-induced neurotoxicity, with TH^+ density […] by 30% compared to the MPTP group.
L-deprenyl, which is a substituted phenethylamine used in treatment of early Parkinson's disease, was used as a positive control.

[1] = system: oligodendroglial progenitor cells (OPCs); test: OPC proliferation (EdU incorporation assay and Ki67 immunostaining); format: cell-based, rat; conditions: 2 days
Protocol: FIGS. 10A, 10B and 10C show the effects of BHDPC in oligodendroglial progenitor cells (OPCs) proliferation. OPCs were incubated with the drugs at indicated concentrations in proliferation medium for 2 days. (FIG. 10A) The cell viability was measured by MTT assay.
Purified OPC cultures were prepared as described. In brief, primary rat mixed glial cell cultures were isolated from whole brains of postnatal day (P) 2 rats, dissociated into single cells, and cultured into poly-D-lysine (PDL) coated T75 tissue culture flasks. Plating medium consisted of Dulbecco's modified Eagle's medium (DMEM, Invitrogen, Carlsbad, Calif.) supplemented with 10% fetal bovine serum (FBS; Invitrogen, Carlsbad, Calif.), […]. Tissue cultures were maintained at 37° C. in a humidified 5% CO2 incubator, and medium was exchanged every 3 days. Once confluent (after 10-15 days), microglia were separated by mechanical shaking of flasks on a rotary shaker for […] at 250 rpm and removed. […]
OPC was incubated with BHDPC or 0.1% DMSO in the proliferation medium for two days. […] Photographs were captured by fluorescence microscope.
To test the effect of BHDPC on primary OPC culture, OPCs were treated with BHDPC for 48 h and the cell viability was determined using MTT assay. […]

## COc1cc(C2C(C(=O)OCc3ccccc3)=C(C)Nc3nnnn32)ccc1O (stereo not drawn) [BHDPC, benzyl 7-(4-hydroxy-3-methoxyphenyl)-5-methyl-4,7-dihydrotetrazolo[1,5-a]pyrimidine-6-carboxylate]
Primary cortical neurons
  level of microtubule-associated protein (MAP2): increase levels
  level of α-tubulin: increase levels
zebrafish; 3 μM
  TH+ density, percentage of the control group: 66%
zebrafish; 10 μM
  TH+ density, percentage of the control group: 74%
zebrafish; 30 μM
  TH+ density, percentage of the control group: 90%
zebrafish; 3 and 10 μM, MPTP 48 h, dose-dependent
  MPTP-induced TH+ density decrease (FIG. 15B): rescue dramatically; also recorded: protected against MPTP-induced DA neuron loss
zebrafish; BHDPC treated zebrafish compared to control groups
  toxicity in the vital organs: No toxicity was observed
[1]; 30 μM
  ratio of EdU+/oligo2 cells: increased
[1]
  ratio of Ki67+/oligo2 cells: increased

Source: patent US20160113931A1, “Method of treating and/or preventing neurodegenerative diseases” (University of Macau, priority 2014, published 2016)
